Active and inactive are the calls of the source. No rule for the calls is given here.

The data set deals with GENE-TOX genotoxicity assays, various organisms and cells. As to the kind of experiment: GENE-TOX mutagenicity studies. The conditions noted are these: for call: Assay Type: In vivo carcinogenicity studies, Assay Code: CCG+.
Where [1] appears, read: Species/Cell Type: Salmonella typhimurium (one or more of the five standard strains: TA98, TA100, TA1535, TA1537, and TA1538), Assay Type: Histidine reverse gene mutation, Ames assay, Assay Code: SAL+, Evaluation Type: Evaluation A (Pre-1980).
Where [2] appears, read: Species/Cell Type: Salmonella typhimurium (one or more of the five standard strains: TA98, TA100, TA1535, TA1537, and TA1538), Assay Type: Histidine reverse gene mutation, Ames assay, Assay Code: SALT, Evaluation Type: Evaluation A (Pre-1980).
Where [3] appears, read: Species/Cell Type: Drosophila melanogaster, Assay Type: Sex-linked recessive lethal gene mutation, Assay Code: SRLT, Evaluation Type: Evaluation A (Pre-1980).
Setting [4] is: Species/Cell Type: Fischer rat embryo (RLV/1706) cells, Assay Type: Cell transformation, viral enhanced, Assay Code: CTR+, Evaluation Type: Evaluation A (Pre-1980).
Setting [5] is: Species/Cell Type: Mouse (BALB/c-3T3) cells, Assay Type: Cell transformation, Assay Code: CTB-, Evaluation Type: Evaluation A (Pre-1980).
Setting [6] is: Species/Cell Type: Nonhuman, Evaluation Type: Evaluation A (Pre-1980).
The mark [7] stands for this setting: Species/Cell Type: Drosophila melanogaster, Assay Type: Sex-linked recessive lethal gene mutation, Assay Code: SRL+, Evaluation Type: Evaluation A (Pre-1980).
Where [8] appears, read: Species/Cell Type: Human diploid fibroblasts, Assay Type: Unscheduled DNA synthesis (UDS) in vitro, DNA effects, Assay Code: UDH+, Evaluation Type: Evaluation A (Pre-1980).

Regarding `NS(=O)(=O)c1ccccc1C(=O)O`, the mutagenic call (Species/Cell Type: Mammalian polychromatic erythrocytes, Assay Type: Micronucleus test, chromosome aberrations, Assay Code: MNTT, Evaluation Type: Evaluation B (Post-1980)) was “no conclusion”.

With `CC(=O)c1ccc([N+](=O)[O-])s1`, the mutagenic call under setting [1] was “active; positive”.

`Oc1ccc2c3c(cccc13)CC2`: under setting [2], the mutagenic call is listed as “no conclusion”.

Consider `CN(C)c1ccc(N=Nc2ccccc2)cc1`, for which the mutagenic call by setting is: (Species/Cell Type: Bacillus subtilis (H17 vs M45T), Assay Type: Rec-assay, spot test, DNA effects (bacterial DNA repair), Assay Code: REXT, Evaluation Type: Evaluation A (Pre-1980)) “no conclusion”; under setting [3], “no conclusion”; (Species/Cell Type: Escherichia coli polA (W3110 vs P3478), Assay Type: Rec-assay, DNA effects (bacterial DNA repair), Assay Code: RE2-, Evaluation Type: Evaluation A (Pre-1980)) “inactive; negative”; (Species/Cell Type: Escherichia coli polA (W3119 vs P3478), Assay Type: Rec-assay, DNA effects (bacterial DNA repair), Assay Code: RE1T, Evaluation Type: Evaluation A (Pre-1980)) “no conclusion”; under setting [4], “active; positive”; (Species/Cell Type: Human diploid fibroblasts, Assay Type: Unscheduled DNA synthesis (UDS) in vitro, DNA effects, Assay Code: UDHT, Evaluation Type: Evaluation A (Pre-1980)) “no conclusion”. For the same compound, the mutagenic call (Species/Cell Type: Mammalian polychromatic erythrocytes, Assay Type: Micronucleus test, chromosome aberrations, Assay Code: MNT+, Evaluation Type: Evaluation A (Pre-1980)) was “active; positive”; the mutagenic call under setting [5] was “inactive; negative”; the mutagenic call (Species/Cell Type: Mouse, Sex: Male, Assay Type: Sperm morphology, Assay Code: SPI-, Evaluation Type: Evaluation A (Pre-1980)) is “inactive; negative”; the mutagenic call (Species/Cell Type: Nonhuman, Assay Type: Sister-chromatid exchange (SCE) in vitro, Assay Code: SC2+D*, Activation: With metabolic activation, Dose Response: With dose response, Evaluation Type: Evaluation B (Post-1980)) was “active; positive”; the mutagenic call (Species/Cell Type: Nonhuman, Assay Type: Sister-chromatid exchange (SCE) in vivo, Assay Code: SC3+, Evaluation Type: Evaluation B (Post-1980)) was “active; positive”; the mutagenic call (Species/Cell Type: Saccharomyces cerevisiae, Assay Type: Mitotic recombination or gene conversion, Assay Code: YEH-, Evaluation Type: Evaluation A (Pre-1980)) is “inactive; negative”. The mutagenic call is “active; positive” (Species/Cell Type: Salmonella typhimurium (one or more of the five standard strains: TA98, TA100, TA1535, TA1537, and TA1538), Assay Type: Histidine reverse gene mutation, Ames assay, Assay Code: SAL+*, Activation: With metabolic activation, Evaluation Type: Evaluation A (Pre-1980)); “active; positive” (Species/Cell Type: Salmonella typhimurium, Assay Type: Forward and reverse gene mutation, body fluid assay, Assay Code: BFU+, Evaluation Type: Evaluation A (Pre-1980)); “no conclusion” (Species/Cell Type: Syrian hamster embryo (SHE) cells, Assay Type: Cell transformation, clonal assay, Assay Code: CTCT, Evaluation Type: Evaluation A (Pre-1980)). Further, the call under setting [6] was “active; positive”.

In the case of `Oc1ccc2ccccc2c1N=Nc1cc[c]([Hg+])cc1`, the mutagenic call under setting [2] is “no conclusion”.

In the case of `O=C(O)COc1cc(Cl)c(Cl)cc1Cl`, the mutagenic call is, setting by setting: (Species/Cell Type: Drosophila melanogaster, Assay Type: Aneuploidy, sex chromosome gain, chromosome aberrations, Assay Code: DAG-M-F, Evaluation Type: Evaluation A (Pre-1980)) “inactive; negative”; (Species/Cell Type: Drosophila melanogaster, Assay Type: Aneuploidy, whole sex chromosome loss, chromosome aberrations, Assay Code: DAC-M-F, Evaluation Type: Evaluation A (Pre-1980)) “inactive; negative”; under setting [7], “active; positive”; under setting [3], “no conclusion”; (Species/Cell Type: Mammalian polychromatic erythrocytes, Assay Type: Micronucleus test, chromosome aberrations, Assay Code: MNTT, Evaluation Type: Evaluation A (Pre-1980)) “no conclusion”; (Species/Cell Type: Nonhuman bone marrow, Assay Type: Chromosome aberrations, in vivo, Assay Code: CY#+D, Dose Response: With dose response, Evaluation Type: Evaluation A (Pre-1980)) “active; positive”. Besides, the mutagenic call reads like this: (Species/Cell Type: Saccharomyces cerevisiae, Assay Type: Reverse gene mutation, Assay Code: YER+, Evaluation Type: Evaluation A (Pre-1980)) “active; positive”; (Species/Cell Type: Salmonella typhimurium, Serratia marcesens, Assay Type: Forward and reverse gene mutation, host-mediated assay, Assay Code: HM2T, Evaluation Type: Evaluation A (Pre-1980)) “no conclusion”; (Species/Cell Type: Vicia faba, Assay Type: Chromosome aberrations, Assay Code: VIC+, Evaluation Type: Evaluation A (Pre-1980)) “active; positive”.

Consider `O=c1[nH]cc(N(CCCl)CCCl)c(=O)[nH]1`, for which the mutagenic call was “active; positive” under setting [7]; “active; positive” (Species/Cell Type: Escherichia coli polA (W3119 vs P3478), Assay Type: Rec-assay, DNA effects (bacterial DNA repair), Assay Code: RE1+, Evaluation Type: Evaluation A (Pre-1980)); “active; positive” under setting [4]; “inactive; negative” under setting [5]; “active; positive” (Species/Cell Type: Mouse lymphoma (L5178Y) cells, Assay Type: Forward gene mutation at the thymidine kinase (TK) locus, chromosome aberrations, Assay Code: L51+, Evaluation Type: Evaluation A (Pre-1980)); “active; positive” (Species/Cell Type: Saccharomyces cerevisiae, Assay Type: Mitotic recombination or gene conversion, Assay Code: YEH+, Evaluation Type: Evaluation A (Pre-1980)). Moreover, the mutagenic call under setting [1] is “active; positive”; the mutagenic call (Species/Cell Type: Salmonella typhimurium, Assay Type: Forward and reverse gene mutation, host-mediated assay, Assay Code: HMA+, Evaluation Type: Evaluation A (Pre-1980)) is “active; positive”. The call under setting [6] was “active; positive”.

As to `CN(C)CCCN1c2ccccc2Sc2ccccc21`, the mutagenic call (Species/Cell Type: Nonhuman, Assay Type: Sister-chromatid exchange (SCE) in vitro, Assay Code: SC2+D, Dose Response: With dose response, Evaluation Type: Evaluation A (Pre-1980)) is “active; positive”.

As to `c1ccc2c(c1)ccc1c3ccccc3c(C3CO3)cc21` (configuration not stated), the mutagenic call under setting [1] was “active; positive”.

On to `COCCOC(C)=O`, for which the mutagenic call (Species/Cell Type: Mammalian polychromatic erythrocytes, Assay Type: Micronucleus test, chromosome aberrations, Assay Code: MNT-, Evaluation Type: Evaluation B (Post-1980)) is “inactive; negative”.

In the case of `Cc1cc(=O)oc2ccccc12`, for the setting “Species/Cell Type: Allium cepa, Assay Type: Chromosome aberrations, Assay Code: ALC+, Evaluation Type: Evaluation A (Pre-1980)”, the mutagenic call was “active; positive”.

For the compound `CCOc1ccc(CC(=O)OC)cc1CSC(=N)N`, the mutagenic call (Species/Cell Type: Saccharomyces cerevisiae, Assay Type: Reverse gene mutation, Assay Code: YERT, Evaluation Type: Evaluation A (Pre-1980)) is recorded as “no conclusion”.

Regarding `NC(=O)/C=C/c1ccc([N+](=O)[O-])o1`, the mutagenic call under setting [8] was “active; positive” and the mutagenic call under setting [1] is “active; positive”.

Turning to `O=S(=O)(O)c1ccc(N=Nc2ccc(N=Nc3c(O)c(S(=O)(=O)O)cc4cc(S(=O)(=O)O)ccc34)c(S(=O)(=O)O)c2)cc1`, the mutagenic call under setting [2] is listed as “no conclusion”.

`CO[C@@]12[C@H](COC(N)=O)C3=C(C(=O)C(C)=C(N)C3=O)N1C[C@H]1[C@@H]2N1C` (some centres not stated): under “Species/Cell Type: Nonhuman, Assay Type: Sister-chromatid exchange (SCE) in vitro, Assay Code: SC2+D, Dose Response: With dose response, Evaluation Type: Evaluation B (Post-1980)”, the mutagenic call is “active; positive”.

On to `Nc1ccc2[nH]ncc2c1`, for which the mutagenic call (Species/Cell Type: Rat, Sex: Male, Assay Type: Sperm morphology, Assay Code: SPA+, Evaluation Type: Evaluation A (Pre-1980)) is “active; positive”.

With `Cc1cc(N)c(N)cc1N`, under setting [2], the mutagenic call was “no conclusion”.

Consider `O/C=C/Cc1ccc2c(c1)OCO2`, for which, under setting [8], the mutagenic call was “active; positive”.

As to `C=CCN(N=O)C(N)=O`, the mutagenic call (Species/Cell Type: Arabidopsis species, Assay Type: Gene mutation, Assay Code: ARM+D, Dose Response: With dose response, Evaluation Type: Evaluation A (Pre-1980)) was “active; positive” and the mutagenic call (Species/Cell Type: Saccharomyces cerevisiae, Assay Type: Mitotic recombination or gene conversion, Assay Code: YEC+, Evaluation Type: Evaluation A (Pre-1980)) was “active; positive”.

Values taken from PubChem BioAssay AID1259408 (Genetic Toxicology Data Bank (GENE-TOX), 2018).
